Key:
[1] = target: EZH2 (Homo sapiens, UniProt Q15910); assay: EZH2 assay: rPRC2 with biotinylated oligonucleosome substrates and 3H SAM, FlashPlate scintillation counting, IC50; assay type: biochemical; settings: rPRC2, biotinylated oligonucleosome substrates, 3H SAM; read-out: EZH2 IC50
In short: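 rPRC2 (2 nM EZH2) pre-incubated 20 min with compound (80 to 0.16 uM, ten 2-fold steps), then 60 min reaction with 0.2 uM 3H SAM, 0.2 uM biotinylated oligonucleosomes, 3.6 uM H3K27me3 peptide in Tris pH 8.5. SAH/EDTA quench; 4-parameter IC50 fit.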

[2] = target: Y641N EZH2 (Homo sapiens, UniProt Q15910, Y641N); assay: Y641N EZH2 assay: performed as the EZH2 assay, using reconstituted H3K27Me2 oligonucleosomes as substrate; assay type: biochemical
Experimental: Assays were carried out by mixing rPRC2 together with biotinylated oligonucleosome substrates in the presence of the radio-labeled enzyme co-factor, S-adenosyl-L-methionine (^3H SAM) (Perkin Elmer) and monitoring the enzymatically mediated transfer of tritiated methyl groups from ^3H SAM to histone lysine residues. The amount of resulting tritated methylhistone product was measured by first capturing the biotinylated oligonuclesomes in streptavidin (SAV) coated FlashPlates (Perkin Elmer), followed by a wash step to remove un-reacted ^3H SAM, and then counting on a TopCount NXT 384 well plate scintillation counter (Perkin Elmer). The final assay conditions for EZH2 were as follows: 50 mM Tris Buffer pH 8.5, 1 mM DTT, 69 uM Brij-35 detergent, 5.0 mM MgCl2, 0.1 mg/mL BSA, 0.2 uM ^3H SAM, 0.2 uM biotinylated oligonucleosomes, 3.6 uM H3K27me3 peptide and 2 nM EZH2.
Compound IC50 measurements were obtained as follows: Compounds were first dissolved in 100% DMSO as 10 mM stock solutions. […] A 12.5 uL volume of the HMT enzyme, H3K27me3 peptide and oligonucleosome substrate in assay buffer was added to each well of the assay plate using a Multidrop Combi (ThermoFisher). Compounds were pre-incubated with the enzyme for 20 min, followed by initiation of the methyltransferase reaction by addition of 12.5 uL of 3H SAM in assay buffer (final volume=25 uL). The final concentrations of compounds ranged from a top default concentration of 80 uM down to 0.16 uM in ten 2-fold dilution steps. Reactions were carried out for 60 minutes and quenched with 20 uL per well of 1.96 mM SAH, 50 mM Tris PH 8.5, 200 mM EDTA. Stopped reactions were transferred to SAV coated Flashplates (Perkin Elmer), incubated for 120 min, washed with a plate washer, and then read on the TopCount NXT (1.0 min/well) to measure the amount of methylhistone product formed during the reaction. The amount of methylhistone product was compared with the amount of product formed in the 0% and 100% inhibition control wells allowing the calculation of % Inhibition in the presence of the individual compounds at various concentrations. IC50's were computed using a 4 parameter fit non-linear curve fitting software package (XLFIT, part of the database package, ActivityBase (IDBS)) where the four parameters were IC50, Hill slope, pre-transitional baseline (0% INH), and post-transitional baseline (100% INH); with the latter two parameters being fixed to zero and 100%, respectively, by default.

Sequence of Y641N EZH2 (Q15910 whole entry Y641N): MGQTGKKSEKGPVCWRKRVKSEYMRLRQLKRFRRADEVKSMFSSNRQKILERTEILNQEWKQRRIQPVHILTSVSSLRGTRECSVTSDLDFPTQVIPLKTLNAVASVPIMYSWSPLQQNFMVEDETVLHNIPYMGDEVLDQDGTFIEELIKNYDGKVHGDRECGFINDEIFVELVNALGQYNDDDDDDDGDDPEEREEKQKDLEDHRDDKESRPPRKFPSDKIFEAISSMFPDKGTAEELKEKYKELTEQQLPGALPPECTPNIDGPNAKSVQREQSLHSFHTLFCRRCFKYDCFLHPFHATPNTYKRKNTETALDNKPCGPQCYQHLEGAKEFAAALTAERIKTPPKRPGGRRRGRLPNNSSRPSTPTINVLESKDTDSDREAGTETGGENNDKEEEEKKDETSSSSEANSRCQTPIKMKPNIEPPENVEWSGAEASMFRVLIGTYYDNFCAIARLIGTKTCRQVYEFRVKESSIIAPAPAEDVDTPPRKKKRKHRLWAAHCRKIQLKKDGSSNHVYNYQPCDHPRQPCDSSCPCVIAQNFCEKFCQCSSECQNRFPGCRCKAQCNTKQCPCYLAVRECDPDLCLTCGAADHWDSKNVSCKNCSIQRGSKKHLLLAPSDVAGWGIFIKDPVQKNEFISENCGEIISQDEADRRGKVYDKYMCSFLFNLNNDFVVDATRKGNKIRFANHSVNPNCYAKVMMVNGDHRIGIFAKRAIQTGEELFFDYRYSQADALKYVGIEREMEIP
Sequence of Y641N EZH2 (O75530 whole entry partner): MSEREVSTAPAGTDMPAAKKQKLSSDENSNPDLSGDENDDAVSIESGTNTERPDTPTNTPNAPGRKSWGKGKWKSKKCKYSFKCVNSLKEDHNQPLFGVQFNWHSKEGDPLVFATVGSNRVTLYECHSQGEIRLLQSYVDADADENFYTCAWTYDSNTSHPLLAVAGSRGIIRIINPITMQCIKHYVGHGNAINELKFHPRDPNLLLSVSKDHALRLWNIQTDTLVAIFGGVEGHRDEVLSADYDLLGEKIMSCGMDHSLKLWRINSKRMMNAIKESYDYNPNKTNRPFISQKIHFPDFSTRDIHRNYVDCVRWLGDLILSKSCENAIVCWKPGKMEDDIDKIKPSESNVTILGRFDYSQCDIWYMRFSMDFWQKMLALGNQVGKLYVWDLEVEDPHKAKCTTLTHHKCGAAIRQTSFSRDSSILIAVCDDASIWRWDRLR
Sequence of Y641N EZH2 (Q15022 whole entry partner): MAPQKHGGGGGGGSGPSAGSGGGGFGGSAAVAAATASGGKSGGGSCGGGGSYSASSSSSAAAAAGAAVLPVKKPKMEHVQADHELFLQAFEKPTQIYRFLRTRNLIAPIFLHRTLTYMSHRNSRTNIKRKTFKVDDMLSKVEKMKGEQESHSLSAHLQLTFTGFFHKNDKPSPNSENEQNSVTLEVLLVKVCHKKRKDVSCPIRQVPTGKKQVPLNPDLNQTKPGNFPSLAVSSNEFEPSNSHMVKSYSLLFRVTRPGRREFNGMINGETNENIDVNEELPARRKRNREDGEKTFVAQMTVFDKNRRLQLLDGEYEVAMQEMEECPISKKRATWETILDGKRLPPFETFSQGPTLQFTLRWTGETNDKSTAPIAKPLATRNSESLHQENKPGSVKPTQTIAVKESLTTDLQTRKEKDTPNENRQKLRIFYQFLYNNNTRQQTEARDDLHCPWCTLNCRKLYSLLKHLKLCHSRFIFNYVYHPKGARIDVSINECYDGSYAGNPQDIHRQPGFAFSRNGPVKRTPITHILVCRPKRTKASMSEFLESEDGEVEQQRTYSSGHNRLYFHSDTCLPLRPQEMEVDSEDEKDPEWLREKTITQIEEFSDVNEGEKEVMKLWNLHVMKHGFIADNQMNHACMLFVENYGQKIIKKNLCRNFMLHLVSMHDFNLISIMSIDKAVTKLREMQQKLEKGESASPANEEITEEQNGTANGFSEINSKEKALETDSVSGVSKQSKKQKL
Sequence of EZH2 (Q15910 whole entry): as the sequence (Q15910 whole entry Y641N) above, with N641Y counted along it
Sequence of EZH2 (O75530 whole entry partner): as the sequence (O75530 whole entry partner) above
Sequence of EZH2 (Q15022 whole entry partner): as the sequence (Q15022 whole entry partner) above

SMILES | IC50 [1] [µM] | IC50 [2] [µM]
CC1(C)CC(NC(=O)c2ccc(Oc3cccc4c3CCNC4)c(Cl)c2)CC(C)(C)N1 [Compound I-423] | < 5 | 20 to 80
N#Cc1ccccc1Oc1ccc(C(=O)NC2CCSCC2)cc1Cl [Compound I-427] | > 80 | > 80
CC1(C)CC(NC(=O)N2CCC(Oc3cccc(-c4cn[nH]c4)c3C#N)CC2)CC(C)(C)N1 [Compound I-429] | 20 to 80 | > 80
CC1(C)CC(NC(=O)c2ccc(C(=O)c3ccccc3)cc2)CC(C)(C)N1 [Compound I-431] | 20 to 80 | > 80
CC1(C)CC(NC(=O)c2ccc(Oc3cccc(N4CCNCC4)c3)c(Cl)c2)CC(C)(C)N1 [Compound I-493] | 20 to 80 | > 80
CC(=O)N1CCN(c2cccc(Oc3ccc(C(=O)NC4CC(C)(C)NC(C)(C)C4)cc3Cl)c2)CC1 [Compound I-499] | 20 to 80 | > 80
CC1(C)CC(NC(=O)c2ccc(Oc3cccc(-c4ccnnc4)c3C#N)c(Cl)c2)CC(C)(C)S1(=O)=O [Compound I-533] | < 5 | > 80
CC(=O)N1CCC(c2cccc(Oc3ccc(C(=O)NC4CC(C)(C)NC(C)(C)C4)cc3)c2C#N)CC1 [Compound I-536] | < 5 | 20 to 80
CC1(C)CC(NC(=O)c2ccc(Oc3cccc(-c4ccnnc4)c3C#N)c(Cl)c2)CC(C)(C)C1O (stereo not drawn) [Compound I-548] | < 5 | 20 to 80
CCOc1cc(-c2cccc(Oc3ccc(C(=O)NC4CC(C)(C)NC(C)(C)C4)cc3Cl)c2C#N)ccn1 [Compound I-556] | < 5 | > 80
CC1(C)CC(NC(=O)c2ccc(Oc3cccc(C4CCCO4)c3C#N)c(Cl)c2)CC(C)(C)N1 (stereo not drawn) [Compound I-560] | < 5 | > 80
CC1(C)CC(NC(=O)c2ccc(Oc3cccc(-c4ccnc(C#N)c4)c3C#N)c(Cl)c2)CC(C)(C)N1 [Compound I-561] | < 5 | < 5
CC1(C)CC(NC(=O)c2ccc(Oc3cccc(-c4ccnnc4)c3C#N)c(Cl)c2)CC(C)(C)C1=O [Compound I-564] | < 5 | > 80
CC1(C)CC(NC(=O)c2ccc(Oc3cccc(-c4cncc(C#N)c4)c3C#N)c(Cl)c2)CC(C)(C)N1 [Compound I-571] | < 5 | < 5
COc1cc(-c2cccc(Oc3ccc(C(=O)NC4CC(C)(C)NC(C)(C)C4)cc3Cl)c2C#N)cc(C)n1 [Compound I-573] | < 5 | 5 to 20
Cc1cc(-c2cccc(Oc3ccc(C(=O)NC4CC(C)(C)NC(C)(C)C4)cc3Cl)c2C#N)cc(C)n1 [Compound I-585] | < 5 | 5 to 20
CC1(C)CC(NC(=O)c2ccc(Oc3cccc(N4CCOCC4)c3)c(Cl)c2)CC(C)(C)N1 [Compound I-590] | 20 to 80 | > 80

The next lines start with the values.

IC50 [1] [µM] | IC50 [2] [µM] | SMILES
< 5 | 5 to 20 | CC1(C)CC(NC(=O)c2ccc(Oc3cccc(-c4cnccn4)c3C#N)c(Cl)c2)CC(C)(C)N1 [Compound I-428]
< 5 | < 5 | CC1(C)CC(NC(=O)c2ccc(Oc3cccc(-c4ccncn4)c3C#N)c(Cl)c2)CC(C)(C)N1 [Compound I-480, 3-Chloro-4-(2-cyano-3-(pyrimidin-4-yl)phenoxy)-N-(2,2,6,6-tetramethylpiperidin-4-yl)benzamide]
< 5 | < 5 | CC1(C)CC(OC(=O)c2ccc(Oc3cccc(-c4ccnnc4)c3C#N)c(Cl)c2)CC(C)(C)N1 [Compound I-504, 2,2,6,6-tetramethylpiperidin-4-yl 3-chloro-4-(2-cyano-3-(pyridazin-4-yl)phenoxy)benzoate]
< 5 | < 5 | CC1(C)CC(NC(=O)c2ccc(Oc3cccc(-c4ccc(O)nc4)c3C#N)c(Cl)c2)CC(C)(C)N1 [Compound I-558]
< 5 | < 5 | Cc1cnccc1-c1cccc(Oc2ccc(C(=O)NC3CC(C)(C)NC(C)(C)C3)cc2Cl)c1C#N [Compound I-572]
< 5 | < 5 | CC1(C)CC(NC(=O)c2ccc(Oc3cccc(-c4ccnc(O)c4)c3C#N)c(Cl)c2)CC(C)(C)N1 [Compound I-583]
< 5 | < 5 | Cc1cc(-c2cccc(Oc3ccc(C(=O)NC4CC(C)(C)NC(C)(C)C4)cc3Cl)c2C#N)ccn1 [Compound I-584]
< 5 | < 5 | CC1(C)CC(NC(=O)c2ccc(Oc3cccc(-c4ccncc4Cl)c3C#N)c(Cl)c2)CC(C)(C)N1 [Compound I-586]
< 5 | 20 to 80 | CC1(C)CC(OCc2ccc(Oc3cccc(-c4ccncn4)c3C#N)c(Cl)c2)CC(C)(C)N1 [Compound I-591, 2-(2-chloro-4-(((2,2,6,6-tetramethylpiperidin-4-yl)oxy)methyl)phenoxy)-6-(pyrimidin-4-yl)benzonitrile]
< 5 | 5 to 20 | CC1(C)CC(/C=C/c2ccc(Oc3cccc(-c4ccncn4)c3C#N)c(Cl)c2)CC(C)(C)N1 [Compound I-592, (E)-2-(2-chloro-4-(2-(2,2,6,6-tetramethylpiperidin-4-yl)vinyl)phenoxy)-6-(pyrimidin-4-yl)benzonitrile]

From patent publication US20130310379A1, “MODULATORS OF METHYL MODIFYING ENZYMES, COMPOSITIONS AND USES THEREOF” (CONSTELLATION PHARMACEUTICALS, priority 2010, published 2013)
